ChEMBL document CHEMBL1201862, “PubChem BioAssay data set” (2004)
Calls of active or inactive are those of the source. Cut-off read from the data, not from the text of the source, for most assays here: actives have a measured IC50 and inactives only a lower limit.

Legend:
P388/ADR = assay: cells; assay type: functional; conditions: Mus musculus
SN12K1 = assay: cells; assay type: functional; conditions: Homo sapiens
P388 = assay: cells; assay type: functional; conditions: Mus musculus
Large T antigen = Large T antigen (Simian virus 40, UniProt P03070); assay type: functional, Betapolyomavirus macacae;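 note: Confirmatory-stage PubChem screen for compounds that inhibit SV40 T antigen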
Sequence of Large T antigen (P03070 whole entry): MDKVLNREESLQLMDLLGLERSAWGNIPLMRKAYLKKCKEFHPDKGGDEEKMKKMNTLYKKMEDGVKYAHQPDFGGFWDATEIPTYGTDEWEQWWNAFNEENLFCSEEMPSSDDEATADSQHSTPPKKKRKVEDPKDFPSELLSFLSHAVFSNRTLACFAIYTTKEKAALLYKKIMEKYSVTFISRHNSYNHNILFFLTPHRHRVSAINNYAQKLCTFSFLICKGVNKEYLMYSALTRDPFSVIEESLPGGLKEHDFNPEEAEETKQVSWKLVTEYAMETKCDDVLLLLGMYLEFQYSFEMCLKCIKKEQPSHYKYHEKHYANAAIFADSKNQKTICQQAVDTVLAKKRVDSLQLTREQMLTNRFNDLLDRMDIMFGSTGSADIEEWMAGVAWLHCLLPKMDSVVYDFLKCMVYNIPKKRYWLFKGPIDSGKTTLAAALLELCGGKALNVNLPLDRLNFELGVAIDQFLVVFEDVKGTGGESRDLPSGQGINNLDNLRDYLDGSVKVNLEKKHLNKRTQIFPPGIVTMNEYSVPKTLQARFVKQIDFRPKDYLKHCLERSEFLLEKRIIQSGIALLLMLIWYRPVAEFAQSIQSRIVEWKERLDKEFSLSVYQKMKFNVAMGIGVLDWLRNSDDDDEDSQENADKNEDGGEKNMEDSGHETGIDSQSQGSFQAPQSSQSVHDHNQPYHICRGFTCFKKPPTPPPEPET

[1] = target: Dual specificity tyrosine-phosphorylation-regulated kinase 1A (Rattus norvegicus, UniProt Q63470); assay type: biochemical, Homo sapiens
[2] = target: T1, Histone-lysine N-methyltransferase NSD2 (Homo sapiens, UniProt O96028); assay type: biochemical
T1 sequence (O96028 whole entry): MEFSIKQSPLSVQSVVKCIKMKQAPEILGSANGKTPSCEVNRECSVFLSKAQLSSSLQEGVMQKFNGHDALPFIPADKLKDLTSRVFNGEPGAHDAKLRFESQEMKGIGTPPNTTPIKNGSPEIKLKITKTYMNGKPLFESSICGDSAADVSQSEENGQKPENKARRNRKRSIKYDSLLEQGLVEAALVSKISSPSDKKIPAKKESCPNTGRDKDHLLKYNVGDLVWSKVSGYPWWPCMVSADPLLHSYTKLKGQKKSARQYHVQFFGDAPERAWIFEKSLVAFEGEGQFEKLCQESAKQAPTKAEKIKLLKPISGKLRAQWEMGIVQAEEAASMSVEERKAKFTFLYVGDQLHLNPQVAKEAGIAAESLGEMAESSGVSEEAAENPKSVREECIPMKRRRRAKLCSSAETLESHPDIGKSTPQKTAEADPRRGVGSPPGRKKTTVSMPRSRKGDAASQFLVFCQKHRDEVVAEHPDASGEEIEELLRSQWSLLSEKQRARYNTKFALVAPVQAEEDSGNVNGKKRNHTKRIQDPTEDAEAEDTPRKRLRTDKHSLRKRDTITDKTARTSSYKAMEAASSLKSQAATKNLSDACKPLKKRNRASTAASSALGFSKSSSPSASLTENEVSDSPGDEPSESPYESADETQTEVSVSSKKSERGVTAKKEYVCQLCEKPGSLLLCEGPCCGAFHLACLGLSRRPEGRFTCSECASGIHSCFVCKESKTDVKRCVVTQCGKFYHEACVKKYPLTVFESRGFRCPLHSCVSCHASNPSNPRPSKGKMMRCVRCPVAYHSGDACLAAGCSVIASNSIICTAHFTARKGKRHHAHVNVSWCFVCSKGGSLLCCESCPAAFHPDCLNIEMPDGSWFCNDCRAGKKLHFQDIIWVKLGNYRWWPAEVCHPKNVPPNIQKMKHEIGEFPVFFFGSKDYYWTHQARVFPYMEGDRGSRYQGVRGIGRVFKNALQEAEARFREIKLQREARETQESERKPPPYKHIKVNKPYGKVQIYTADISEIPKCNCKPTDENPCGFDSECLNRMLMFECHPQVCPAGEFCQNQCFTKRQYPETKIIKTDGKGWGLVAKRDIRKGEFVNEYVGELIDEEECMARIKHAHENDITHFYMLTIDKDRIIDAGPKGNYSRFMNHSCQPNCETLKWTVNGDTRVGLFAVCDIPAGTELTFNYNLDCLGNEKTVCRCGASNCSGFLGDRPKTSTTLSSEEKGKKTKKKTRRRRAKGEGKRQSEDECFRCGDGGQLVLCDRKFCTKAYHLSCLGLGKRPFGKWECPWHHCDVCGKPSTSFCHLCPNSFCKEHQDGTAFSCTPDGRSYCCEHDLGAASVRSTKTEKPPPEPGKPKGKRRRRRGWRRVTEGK

[3] = target: T2, Sentrin-specific protease 8 (Homo sapiens, UniProt Q96LD8); assay: inhibition of human SENP8 cleavage activity – biochemical, luminescence, SAR follow-up (AID 504501); assay type: functional
T2 sequence (Q96LD8 whole entry): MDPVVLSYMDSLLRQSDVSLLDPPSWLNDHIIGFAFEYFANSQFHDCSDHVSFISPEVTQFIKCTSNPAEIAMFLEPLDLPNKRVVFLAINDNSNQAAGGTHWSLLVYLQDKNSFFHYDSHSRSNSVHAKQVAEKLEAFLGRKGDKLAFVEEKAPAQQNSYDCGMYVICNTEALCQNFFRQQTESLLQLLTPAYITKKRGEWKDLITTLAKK

Caspase-3 [4] = target: T3, Caspase-3 (Homo sapiens, UniProt P42574); assay: SAR Analysis of small molecule inhibitors of Sentrin-specific proteases (SENPs) using a Caspase-3 Selectivity assay. [Related pubchem assays (depositor defined):AID2540, AID2599, AID434973, AID489001]; assay type: functional
T3 sequence (P42574 whole entry): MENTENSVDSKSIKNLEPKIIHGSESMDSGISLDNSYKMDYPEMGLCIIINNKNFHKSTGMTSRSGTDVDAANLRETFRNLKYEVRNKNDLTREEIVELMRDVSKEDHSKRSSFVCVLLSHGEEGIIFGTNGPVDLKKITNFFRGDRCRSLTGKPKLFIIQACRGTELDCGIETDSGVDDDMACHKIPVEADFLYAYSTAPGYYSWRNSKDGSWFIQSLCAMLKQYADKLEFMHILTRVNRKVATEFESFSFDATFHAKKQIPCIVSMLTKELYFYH

[5] = target: T4, Sentrin-specific protease 6 (Homo sapiens, UniProt Q9GZR1); assay: SAR Analysis of small molecule inhibitors of Sentrin-specific protease 6 (SENP6) using a Luminescent assay. [Related pubchem assays (depositor defined):AID2582, AID2599]; assay type: functional
T4 sequence (Q9GZR1 whole entry): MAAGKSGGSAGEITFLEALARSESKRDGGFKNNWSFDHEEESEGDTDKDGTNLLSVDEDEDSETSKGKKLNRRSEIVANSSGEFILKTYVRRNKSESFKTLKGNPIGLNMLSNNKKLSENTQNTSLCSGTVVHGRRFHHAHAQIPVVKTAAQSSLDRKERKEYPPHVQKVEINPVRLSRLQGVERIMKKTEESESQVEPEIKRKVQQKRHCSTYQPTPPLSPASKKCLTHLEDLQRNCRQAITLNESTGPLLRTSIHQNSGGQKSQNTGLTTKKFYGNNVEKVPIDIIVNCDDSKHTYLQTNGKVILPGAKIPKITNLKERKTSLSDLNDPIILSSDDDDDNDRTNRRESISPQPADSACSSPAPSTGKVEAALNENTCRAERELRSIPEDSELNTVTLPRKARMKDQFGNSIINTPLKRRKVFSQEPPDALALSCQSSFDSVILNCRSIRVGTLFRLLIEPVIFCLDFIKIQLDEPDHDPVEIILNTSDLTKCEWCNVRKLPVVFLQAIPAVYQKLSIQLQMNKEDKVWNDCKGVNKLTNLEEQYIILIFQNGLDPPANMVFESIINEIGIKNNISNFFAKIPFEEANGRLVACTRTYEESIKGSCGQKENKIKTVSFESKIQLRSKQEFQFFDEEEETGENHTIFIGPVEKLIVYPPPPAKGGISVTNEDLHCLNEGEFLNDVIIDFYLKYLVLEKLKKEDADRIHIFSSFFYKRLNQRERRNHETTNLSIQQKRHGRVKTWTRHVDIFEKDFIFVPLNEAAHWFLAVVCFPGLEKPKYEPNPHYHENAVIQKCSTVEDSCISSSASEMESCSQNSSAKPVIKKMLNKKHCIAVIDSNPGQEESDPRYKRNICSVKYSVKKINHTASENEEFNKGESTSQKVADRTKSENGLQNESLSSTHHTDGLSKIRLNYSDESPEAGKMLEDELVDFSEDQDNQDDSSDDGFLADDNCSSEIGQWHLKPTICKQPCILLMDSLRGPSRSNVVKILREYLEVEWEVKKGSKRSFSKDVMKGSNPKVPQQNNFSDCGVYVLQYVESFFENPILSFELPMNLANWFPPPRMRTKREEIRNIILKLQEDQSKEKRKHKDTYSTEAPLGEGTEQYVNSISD

[6] = target: T5, Sentrin-specific protease 7 (Homo sapiens, UniProt Q9BQF6); assay: inhibition of human SENP7 cleavage activity – biochemical, luminescence, SAR follow-up (AID 504497); assay type: functional
T5 sequence (Q9BQF6 whole entry): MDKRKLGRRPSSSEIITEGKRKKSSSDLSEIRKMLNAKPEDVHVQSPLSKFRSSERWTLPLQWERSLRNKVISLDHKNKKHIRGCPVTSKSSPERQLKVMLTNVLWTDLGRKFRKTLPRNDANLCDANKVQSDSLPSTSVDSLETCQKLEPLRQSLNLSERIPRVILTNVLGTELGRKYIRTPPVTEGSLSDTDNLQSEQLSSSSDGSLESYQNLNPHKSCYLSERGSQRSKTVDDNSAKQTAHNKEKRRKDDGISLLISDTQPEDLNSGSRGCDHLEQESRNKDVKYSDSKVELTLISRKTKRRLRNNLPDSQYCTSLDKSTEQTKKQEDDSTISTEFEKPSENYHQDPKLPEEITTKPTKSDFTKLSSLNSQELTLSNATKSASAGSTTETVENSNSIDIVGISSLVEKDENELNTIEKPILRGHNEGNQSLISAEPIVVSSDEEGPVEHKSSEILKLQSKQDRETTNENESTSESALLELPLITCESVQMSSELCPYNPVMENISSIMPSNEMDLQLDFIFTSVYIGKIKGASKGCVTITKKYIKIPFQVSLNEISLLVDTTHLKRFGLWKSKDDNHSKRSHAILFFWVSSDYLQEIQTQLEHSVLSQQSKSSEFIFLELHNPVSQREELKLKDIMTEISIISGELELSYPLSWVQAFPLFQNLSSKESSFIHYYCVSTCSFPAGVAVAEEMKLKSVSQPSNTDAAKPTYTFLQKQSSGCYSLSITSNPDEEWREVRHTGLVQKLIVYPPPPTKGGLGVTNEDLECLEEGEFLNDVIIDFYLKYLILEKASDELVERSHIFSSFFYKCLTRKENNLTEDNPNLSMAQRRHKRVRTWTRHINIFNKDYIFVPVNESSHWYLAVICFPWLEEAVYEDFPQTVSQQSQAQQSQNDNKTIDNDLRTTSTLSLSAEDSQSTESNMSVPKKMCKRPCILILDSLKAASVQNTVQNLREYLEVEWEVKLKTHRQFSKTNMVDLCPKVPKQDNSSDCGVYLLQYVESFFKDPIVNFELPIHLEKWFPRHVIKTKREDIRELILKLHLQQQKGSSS

Caspase-3 [7] = target: T3, Caspase-3; assay type: functional
[8] = target: T5, Sentrin-specific protease 7; assay type: functional
[9] = target: T4, Sentrin-specific protease 6; assay type: functional
[10] = target: T2, Sentrin-specific protease 8; assay type: functional
[11] = Luminescence Cell-Based Dose Retest to Confirm Inhibitors of Cancer Stem Cells. [Related pubchem assays (depositor defined):AID2717, AID2721]; assay type: functional; conditions: Homo sapiens

## O=C(O)/C=C/c1c[nH]c(=O)[nH]c1=O
P388/ADR
  GI50: > 500 µM (inactive)
SN12K1
  GI50: > 500 µM (inactive)
P388
  GI50: > 500 µM (inactive)

## N#C/C(=C/c1ccc(O)c(O)c1)c1nc2ccccc2[nH]1
Large T antigen
  IC50: 12.3 µM (active)
[1]
  AC50: 2.06 µM (active)
[2]
  AC50: 2.05 µM (active)

## O=C(Nc1ccc(F)c(F)c1)c1ccc2c(c1)OCO2
[3]
  IC50: 8.53 µM (active)
Caspase-3 [4]
  IC50: 3.11 µM (active)
[5]
  IC50: 8.66 µM (active)
[6]
  IC50: 2.85 µM (active)

## O=C1/C(=C/c2cccc(F)c2)Oc2cc(O)ccc21
Caspase-3 [7]
  IC50: 18.2 µM (active)
[8]
  IC50: 6.09 µM (active)
[9]
  IC50: 15.9 µM (active)
[10]
  IC50: 2.29 µM (active)
[3]
  IC50: 15.8 µM (active)
Caspase-3 [4]
  IC50: 9.25 µM (active)
[5]
  IC50: 12 µM (active)
[6]
  IC50: 4.4 µM (active)

## N#Cc1c(NC(=O)c2ccc(Cn3cc(Br)cn3)o2)sc2c1CCCCC2
[11]
  AC50: 2.97 µM (active)
[3]
  IC50: > 99 µM (inactive)
Caspase-3 [4]
  IC50: > 99 µM (inactive)
[5]
  IC50: > 99 µM (inactive)
[6]
  IC50: > 99 µM (inactive)

## COc1cc(OC)cc(C(=O)Nc2ccc(Nc3ccccc3)cc2)c1
[11]
  AC50: 4.09 µM (active)
Caspase-3 [7]
  IC50: 30.3 µM (active)
[8]
  IC50: 5.27 µM (active)
[9]
  IC50: 17.8 µM (active)
[10]
  IC50: 22.5 µM (active)

## CCCCCSc1cc(OC)c(CCNC)cc1OC
[2]
  AC50: 17.5 µM (active)

## Nc1nc(N)c2nc(CNc3ccc(C(=O)NC(CCCNC(=O)c4ccccc4C(=O)O)C(=O)O)cc3)cnc2n1 (stereo unspecified)
P388/ADR
  GI50: < 0.01 µM (active)
SN12K1
  GI50: < 0.01 µM (active)
P388
  GI50: < 0.01 µM (active)

## O=C(Nc1nc2ccc(Cl)cc2s1)c1ccc(C(F)(F)F)cc1
[3]
  IC50: > 99 µM (inactive)
Caspase-3 [4]
  IC50: > 99 µM (inactive)
[5]
  IC50: > 99 µM (inactive)
[6]
  IC50: > 99 µM (inactive)

## CC(=O)Oc1ccccc1/C=C(\C)c1noc(-c2ccccc2O)n1
[3]
  IC50: > 99 µM (inactive)
Caspase-3 [4]
  IC50: > 99 µM (inactive)
[5]
  IC50: > 99 µM (inactive)
[6]
  IC50: > 99 µM (inactive)

## C[C@@]1(CO)[C@H](O)CC[C@@]2(C)[C@H]1CC[C@H]1C[C@@H]3C[C@@]12CC[C@@]3(O)COC(=O)CN
P388/ADR
  GI50: 0.481 µM (active)
P388
  GI50: 1.11 µM (active)

## CCOC(=O)C(C)N1C(=O)c2ccccc2S1(=O)=O (stereo unspecified)
P388/ADR
  GI50: > 100 µM (inactive)
SN12K1
  GI50: > 100 µM (inactive)
P388
  GI50: > 100 µM (inactive)

## Cc1c2cnccc2c(C)c2c1c1ccccc1n2CCCCCCCl
P388/ADR
  GI50: 22.8 µM (inactive)
SN12K1
  GI50: 30 µM (inactive)
P388
  GI50: 1.77 µM (inactive)

## CCCCCCCC/C=C\CCCCCCCCCCCC(=O)O [ERUCIC ACID]
P388/ADR
  GI50: 14.4 µM (inactive)
SN12K1
  GI50: 9.62 µM (inactive)
P388
  GI50: 11.2 µM (inactive)
